“And” between values parts separate entries of the source, which are not always exact repeats. Identical values can stand only once.
Assay: xn = mol fraction of the nth substance listed

ClC(Cl)(Cl)Cl + CCO
Settings	viscosity [mPa·s]
298.15 K, 101 kPa, x2 = 0.0247	0.89
298.15 K, 101 kPa, x2 = 0.0475	0.884
298.15 K, 101 kPa, x2 = 0.0769	0.883
298.15 K, 101 kPa, x2 = 0.1	0.872
298.15 K, 101 kPa, x2 = 0.1289	0.874
298.15 K, 101 kPa, x2 = 0.2438	0.886
298.15 K, 101 kPa, x2 = 0.27	0.886
298.15 K, 101 kPa, x2 = 0.37	0.915
298.15 K, 101 kPa, x2 = 0.3813	0.931
298.15 K, 101 kPa, x2 = 0.45	0.947
298.15 K, 101 kPa, x2 = 0.5136	0.974
298.15 K, 101 kPa, x2 = 0.645	1.023
298.15 K, 101 kPa, x2 = 0.69	1.037
298.15 K, 101 kPa, x2 = 0.768	1.068
298.15 K, 101 kPa, x2 = 0.77	1.064
298.15 K, 101 kPa, x2 = 0.83	1.079
298.15 K, 101 kPa, x2 = 0.8966	1.108
298.15 K, 101 kPa, x2 = 0.93	1.091
298.15 K, 101 kPa, x2 = 0.9687	1.1
303 K, 101.33 kPa, x2 = 0.37	0.8302
303 K, 101.33 kPa, x2 = 0.45	0.8567
303 K, 101.33 kPa, x2 = 0.53	0.8727
303 K, 101.33 kPa, x2 = 0.64	0.9314
303 K, 101.33 kPa, x2 = 0.69	0.9449
303 K, 101.33 kPa, x2 = 0.73	0.9479
303 K, 101.33 kPa, x2 = 0.83	0.9806
303 K, 101.33 kPa, x2 = 0.89	0.9857
303 K, 101.33 kPa, x2 = 0.91	1.007
303 K, 101.33 kPa, x2 = 0.93	0.9995
303 K, 101.33 kPa, x2 = 0.95	1.008
303.15 K, 101 kPa, x2 = 0.0565	0.8183
303.15 K, 101 kPa, x2 = 0.0932	0.8112
303.15 K, 101 kPa, x2 = 0.1798	0.8093
303.15 K, 101 kPa, x2 = 0.312	0.8313
303.15 K, 101 kPa, x2 = 0.4579	0.8759
303.15 K, 101 kPa, x2 = 0.5273	0.8994
303.15 K, 101 kPa, x2 = 0.6028	0.924
303.15 K, 101 kPa, x2 = 0.689	0.949
303.15 K, 101 kPa, x2 = 0.7868	0.974
303.15 K, 101 kPa, x2 = 0.867	0.9867
303.15 K, 101 kPa, x2 = 0.9134	0.9917
303.15 K, 101 kPa, x2 = 0.9566	0.9933
303.15 K, 101 kPa, x2 = 0.9724	0.9934
308.15 K, 101 kPa, x2 = 0.0247	0.773
308.15 K, 101 kPa, x2 = 0.0475	0.768
308.15 K, 101 kPa, x2 = 0.0769	0.762
308.15 K, 101 kPa, x2 = 0.1289	0.759
308.15 K, 101 kPa, x2 = 0.2438	0.768
308.15 K, 101 kPa, x2 = 0.3813	0.783
308.15 K, 101 kPa, x2 = 0.5136	0.825
308.15 K, 101 kPa, x2 = 0.645	0.857
308.15 K, 101 kPa, x2 = 0.768	0.891
308.15 K, 101 kPa, x2 = 0.8966	0.923
308.15 K, 101 kPa, x2 = 0.9687	0.914
313 K, 101.33 kPa, x2 = 0.37	0.7056
313 K, 101.33 kPa, x2 = 0.45	0.7242
313 K, 101.33 kPa, x2 = 0.53	0.7385
313 K, 101.33 kPa, x2 = 0.64	0.7801
313 K, 101.33 kPa, x2 = 0.69	0.7889
313 K, 101.33 kPa, x2 = 0.73	0.7949
313 K, 101.33 kPa, x2 = 0.83	0.8127
313 K, 101.33 kPa, x2 = 0.89	0.817
313 K, 101.33 kPa, x2 = 0.91	0.8276
313 K, 101.33 kPa, x2 = 0.93	0.8251
313 K, 101.33 kPa, x2 = 0.95	0.8358
318.15 K, 101 kPa, x2 = 0.0247	0.678
318.15 K, 101 kPa, x2 = 0.0475	0.676
318.15 K, 101 kPa, x2 = 0.0769	0.671
318.15 K, 101 kPa, x2 = 0.1289	0.664
318.15 K, 101 kPa, x2 = 0.2438	0.672
318.15 K, 101 kPa, x2 = 0.3813	0.672
318.15 K, 101 kPa, x2 = 0.5136	0.698
318.15 K, 101 kPa, x2 = 0.645	0.72
318.15 K, 101 kPa, x2 = 0.768	0.744
318.15 K, 101 kPa, x2 = 0.8966	0.773
318.15 K, 101 kPa, x2 = 0.9687	0.769
323 K, 101.33 kPa, x2 = 0.37	0.6106
323 K, 101.33 kPa, x2 = 0.45	0.6123
323 K, 101.33 kPa, x2 = 0.53	0.6316
323 K, 101.33 kPa, x2 = 0.64	0.6595
323 K, 101.33 kPa, x2 = 0.69	0.6672
323 K, 101.33 kPa, x2 = 0.73	0.6698
323 K, 101.33 kPa, x2 = 0.83	0.6807
323 K, 101.33 kPa, x2 = 0.89	0.6862
323 K, 101.33 kPa, x2 = 0.91	0.6947
323 K, 101.33 kPa, x2 = 0.93	0.6952
323 K, 101.33 kPa, x2 = 0.95	0.6993

ClC(Cl)(Cl)Cl + CCCO
101 kPa
Settings	viscosity [mPa·s]
298.15 K, x2 = 0.0685	0.89
298.15 K, x2 = 0.1	0.903
298.15 K, x2 = 0.1294	0.909
298.15 K, x2 = 0.2085	0.962
298.15 K, x2 = 0.22	0.946
298.15 K, x2 = 0.2859	1.02
298.15 K, x2 = 0.31	1.012
298.15 K, x2 = 0.39	1.089
298.15 K, x2 = 0.3964	1.113
298.15 K, x2 = 0.5849	1.317
298.15 K, x2 = 0.63	1.409
298.15 K, x2 = 0.72	1.554
298.15 K, x2 = 0.79	1.667
298.15 K, x2 = 0.8446	1.724
298.15 K, x2 = 0.8705	1.769
298.15 K, x2 = 0.8955	1.808
298.15 K, x2 = 0.91	1.88
298.15 K, x2 = 0.9511	1.877
303.15 K, x2 = 0.0615	0.8319
303.15 K, x2 = 0.0651	0.8324
303.15 K, x2 = 0.1059	0.8333
303.15 K, x2 = 0.2377	0.8752
303.15 K, x2 = 0.3576	0.9546
303.15 K, x2 = 0.4503	1.041
303.15 K, x2 = 0.5592	1.163
303.15 K, x2 = 0.6985	1.339
303.15 K, x2 = 0.7899	1.461
303.15 K, x2 = 0.8376	1.524
303.15 K, x2 = 0.8976	1.603
303.15 K, x2 = 0.9626	1.682
303.15 K, x2 = 0.9633	1.684
308.15 K, x2 = 0.0685	0.775
308.15 K, x2 = 0.1294	0.785
308.15 K, x2 = 0.2085	0.817
308.15 K, x2 = 0.2859	0.849
308.15 K, x2 = 0.3964	0.905
308.15 K, x2 = 0.5849	1.071
308.15 K, x2 = 0.8446	1.383
308.15 K, x2 = 0.8705	1.402
308.15 K, x2 = 0.8955	1.435
308.15 K, x2 = 0.9511	1.487
318.15 K, x2 = 0.0685	0.676
318.15 K, x2 = 0.1294	0.686
318.15 K, x2 = 0.2085	0.702
318.15 K, x2 = 0.2859	0.735
318.15 K, x2 = 0.3964	0.772
318.15 K, x2 = 0.5849	0.882
318.15 K, x2 = 0.8446	1.109
318.15 K, x2 = 0.8705	1.128
318.15 K, x2 = 0.8955	1.152
318.15 K, x2 = 0.9511	1.196

CC1CCCCC1O (stereo unspecified) + c1ccccc1
293.15 K, 101 kPa
Settings	viscosity
x2 = 0.33	3.2 mPa·s
x2 = 0.5	1.8 mPa·s
x2 = 0.6	1.5 mPa·s
x2 = 0.7	1.3 mPa·s
x2 = 0.8	1.1 mPa·s and 1 mPa·s

ClC(Cl)(Cl)Cl + CCC(C)O
viscosity [mPa·s], 101 kPa
Settings	298.15 K	308.15 K	318.15 K
x2 = 0.0864	0.89	0.779	0.679
x2 = 0.1674	0.934	0.807	0.686
x2 = 0.2076	0.91	0.801	0.695
x2 = 0.2585	0.94	0.819	0.701
x2 = 0.3003	0.954	0.825	0.713
x2 = 0.3969	1.053	0.862	0.731
x2 = 0.5009	1.163	0.938	0.783
x2 = 0.5957	1.335	1.039	0.86
x2 = 0.6933	1.545	1.183	0.942
x2 = 0.7903	1.863	1.378	1.087
x2 = 0.9054	2.429	1.746	1.287

— the CheMixHub viscosity set
